Laboratory results as given in patent publication US20070219237A1, “Chromane Derivatives” (Pfizer Inc, priority 2006, published 2007).

target: T1, porcine gastric H^+/K^+-ATPase (Sus scrofa, UniProt P19156); assay: Ion-tight porcine gastric H+/K+-ATPase inhibition; assay type: biochemical; conditions: ion-tight gastric vesicles, 150 mM KCl, 15 μM valinomycin, pH 7.4, 37° C., 30 minutes; read-out: IC50 of the inhibitory activity
T1 construct: prepared from mucous membrane in fresh porcine stomachs by homogenization; from tissue; host or cells: gastric vesicles from mucous membrane of fresh porcine stomachs
T1 sequence (P19156 2-1034 limits assumed): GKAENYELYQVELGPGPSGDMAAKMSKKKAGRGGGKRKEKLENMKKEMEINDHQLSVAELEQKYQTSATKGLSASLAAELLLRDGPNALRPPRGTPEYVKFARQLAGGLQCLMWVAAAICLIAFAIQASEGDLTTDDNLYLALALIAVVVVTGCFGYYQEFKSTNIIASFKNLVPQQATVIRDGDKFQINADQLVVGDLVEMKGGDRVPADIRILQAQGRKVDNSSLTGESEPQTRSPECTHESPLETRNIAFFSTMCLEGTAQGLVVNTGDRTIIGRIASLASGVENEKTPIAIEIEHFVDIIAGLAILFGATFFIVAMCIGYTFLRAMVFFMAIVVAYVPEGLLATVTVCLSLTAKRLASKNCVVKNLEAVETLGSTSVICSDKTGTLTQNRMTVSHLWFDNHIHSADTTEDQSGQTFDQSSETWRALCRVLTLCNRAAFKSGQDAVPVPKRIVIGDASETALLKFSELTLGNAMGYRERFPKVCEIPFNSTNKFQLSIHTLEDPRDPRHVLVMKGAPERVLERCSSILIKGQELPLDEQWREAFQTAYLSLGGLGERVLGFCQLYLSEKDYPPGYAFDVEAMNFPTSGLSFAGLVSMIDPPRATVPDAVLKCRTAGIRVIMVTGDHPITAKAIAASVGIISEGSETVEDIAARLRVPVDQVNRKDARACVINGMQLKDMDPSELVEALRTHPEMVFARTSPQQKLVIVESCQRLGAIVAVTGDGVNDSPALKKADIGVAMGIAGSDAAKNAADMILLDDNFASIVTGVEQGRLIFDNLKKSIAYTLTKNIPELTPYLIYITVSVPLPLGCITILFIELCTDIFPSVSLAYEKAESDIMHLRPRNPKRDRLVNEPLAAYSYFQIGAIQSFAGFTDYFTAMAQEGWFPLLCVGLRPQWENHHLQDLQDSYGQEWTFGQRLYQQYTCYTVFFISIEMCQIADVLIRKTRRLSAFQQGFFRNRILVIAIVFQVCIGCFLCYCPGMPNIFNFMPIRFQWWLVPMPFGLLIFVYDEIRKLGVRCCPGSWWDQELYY
T1 sequence (P18434 whole entry partner): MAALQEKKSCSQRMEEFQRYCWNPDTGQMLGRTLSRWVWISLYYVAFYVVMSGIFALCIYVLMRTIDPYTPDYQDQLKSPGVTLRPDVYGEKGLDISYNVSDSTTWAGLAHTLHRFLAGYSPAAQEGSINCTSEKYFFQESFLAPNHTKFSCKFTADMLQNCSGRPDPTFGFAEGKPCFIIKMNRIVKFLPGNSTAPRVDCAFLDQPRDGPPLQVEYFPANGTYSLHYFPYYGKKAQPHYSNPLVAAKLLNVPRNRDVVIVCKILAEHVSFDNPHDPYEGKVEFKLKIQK
Method: The porcine gastric vesicles for Porcine gastric H^+/K^+-ATPase inhibition assays were prepared from mucous membrane in fresh porcine stomachs by homogenization with a tight-fitted polytetrafluoroethylene (Teflone®) homogenizer in 0.25 M sucrose at 4° C. The crude pellet was removed with centrifugation at 20,000 g for 30 min. Then supernatant was centrifuged at 100,000 g for 30 min. The resulting pellet was re-suspended in 0.25 M sucrose, and then subjected to density gradient centrifugation at 132,000 g for 90 min. The gastric vesicles were collected from interface on 0.25 M sucrose layer containing 7% FicollTM PM400(Amersham Biosciences). This procedure was performed in a cold room.
Ion-tight porcine gastric H^+/K^+-ATPase inhibition was measured according to the modified method described in Biochemical Pharmacology, 1988, 37, 2231-2236.
The isolated vesicles were kept in deep-freezer until use. For enzyme assay, vesicles were diluted with 3 mM MgSO4 containing 5 mM Tris (pH 7.4 at 37° C.).
Enzyme reaction was performed incubating 150 mM KCl, 3 mM Na2ATP, 3 mM MgSO4, 15 μM valinomycin and 3.0 μg of vesicles for 30 minutes at 37° C. in a final 60 μl of reaction mixture (5mM Tris, pH 7.4) with or without the test compound. Enzyme reaction was stopped by adding 10% SDS. Released inorganic phosphate from ATP was detected by incubating with mixture of 1 part of 35 mM ammonium molybdate tetrahydrate in 15 mM Zinc acetate hydrate and 4 parts of 10% ascorbic acid (pH 5.0), resulting in phosphomolybdate, which has optical density at 750 nm.

SMILES | IC50
Cc1nc2c(NC3CCOc4ccccc43)cc(C(=O)N(C)C)cn2c1CO (racemic) [Example 2-1, 8-(3,4-Dihydro-2H-chromen-4-ylamino)-3-(hydroxymethyl)-N,N,2-trimethylimidazo[1,2a]pyridine-6-carboxamide] | 75 nM
Cc1nc2c(NC3CCOc4ccccc43)cc(C(=O)N3CCOCC3)cn2c1CO (racemic) [Example 7-1, [8-(3,4-Dihydro-2H-chromen-4-ylamino)_-2-methyl-6-(morpholin-4-ylcarbonyl)imidazo[1,2-a]pyridin-3-yl]methanol] | 140 nM
Cc1cccc2c1[C@@H](Nc1cc(C(=O)N(C)C)cn3c(CO)c(C)nc13)CCO2 (single isomer, unassigned) [Example 1-2] | 84 nM
Cc1cccc2c1C(Nc1cc(C(=O)N(C)C)cn3c(CO)c(C)nc13)CCO2 (single isomer, unassigned) [Example 1-3] | 89 nM
Cc1cccc2c1C(Nc1cc(C(=O)N3CCOCC3)cn3c(CO)c(C)nc13)CCO2 (single isomer, unassigned; (+)) [Example 6-3, (+)-[2-Methyl-8-[(5-methyl-3,4-dihydro-2H-chromen-4-yl)amino]-6-(morpholin-4-ylcarbonyl)imidazo[1,2-a]pyridin-3-yl]methanol] | 61 nM
Cc1nc2c(NC3CCOc4ccccc43)cc(C(=O)N3CCOCC3)cn2c1CO (single isomer, unassigned; (+)) [Example 7-3, (+)-[8-(3,4-Dihydro-2H-chromen-4-ylamino)-2-methyl-6-(morpholin-4-ylcarbonyl)imidazo[1,2-a]pyridin-3-yl]methanol] | 110 nM
Cc1nc2c(NC3CCOc4cccc(F)c43)cc(C(=O)N3CCOCC3)cn2c1CO (single isomer, unassigned; (+)) [Example 9-2] | 72 nM
Cc1nc2c(NC3CCOc4ccccc43)cc(C(=O)N(C)C)cn2c1CO (single isomer, unassigned; (-)) [Example 2-3] | 67 nM
Cc1nc2c(NC3CCOc4ccccc43)cc(C(=O)N3CCOCC3)cn2c1CO (single isomer, unassigned; (-)) [Example 7-2, (−)-[f8-(3,4-Dihydro-2H-chromen-4-ylamino)-2-methyl-6-(morpholin-4-ylcarbonyl)imidazo[1,2-a]pyridin-3-yl]methanol] | 96 nM
Cc1nc2c(NC3CCOc4cccc(F)c43)cc(C(=O)N3CCOCC3)cn2c1CO (single isomer, unassigned; (-)) [Example 9-3] | 61 nM

Now from value to compound:

IC50 | SMILES
61 nM | Cc1nc2c(NC3CCOc4ccccc43)cc(C(=O)N(C)C)cn2c1CO (single isomer, unassigned; (+)) [Example 2-2, (+)-8-(3,4-Dihydro-2H-chromen-4-ylamino)-3-(hydroxymethyl)-N,N,2-trimethylimidazo[1,2-a]pyridine-6-car boxamide]
55 nM | Cc1nc2c(NC3CCOc4cc(F)cc(F)c43)cc(C(=O)N3CCOCC3)cn2c1CO (racemic) [Example 8-1]
52 nM | Cc1nc2c(NC3CCOc4cc(F)cc(F)c43)cc(C(=O)N3CCOCC3)cn2c1CO (single isomer, unassigned; (-)) [Example 8-3, (−)-[8-[5,7-Difluoro-3,4-dihydro-2H-chromen-4-yl)amino]-2-methyl-6-(morpholin-4-ylcarbonyl)imidazo[1,2-a]pyridin-3-ylmethanol]
47 nM | Cc1nc2c(NC3CCOc4cccc(F)c43)cc(C(=O)N3CCOCC3)cn2c1CO (racemic) [Example 9-1, [8-[(5-Fluoro-3,4-dihydro-2H-chromen-4-yl)amino]-2-methyl-6-(morpholin-4-ylcarbonyl)imidazo[1,2-a]pyridin-3-yl]methanol]
43 nM | Cc1cccc2c1C(Nc1cc(C(=O)N3CCOCC3)cn3c(CO)c(C)nc13)CCO2 (single isomer, unassigned; (-)) [Example 6-2]
41 nM | Cc1nc2c(NC3CCOc4cc(F)cc(F)c43)cc(C(=O)N(C)C)cn2c1CO (single isomer, unassigned) [Example 3-3]
40 nM | Cc1nc2c(NC3CCOc4cc(F)cc(F)c43)cc(C(=O)N3CCOCC3)cn2c1CO (single isomer, unassigned; (+)) [Example 8-2, (+)-[8-[(5,7-Difluoro-3,4-dihydro-2H-chromen-4-yl)amino]-2-methyl-6-(morpholin-4-ylcarbonyl)imidazo[1,2-a]pyridin-3-yl]methanol]
37 nM | Cc1nc2c(NC3CCOc4cc(F)cc(F)c43)cc(C(=O)N(C)C)cn2c1CO (single isomer, unassigned) [Example 3-2]
30 nM | Cc1nc2c(NC3CCOc4cccc(F)c43)cc(C(=O)N(C)C)cn2c1CO (single isomer, unassigned; (+)) [Example 4-3, (+)-8-[(5-Fluoro-3,4-dihydro-2H-chromen-4yl)-amino]-3-(hydroxymethyl)-N,N,2-trimethylimidazo [1,2-a]pyridine-6-carboxamide]
29 nM | Cc1nc2c(NC3CCOc4cccc(F)c43)cc(C(=O)N(C)C)cn2c1CO (single isomer, unassigned; (-)) [Example 4-2, (−)-8-[(5-Fluoro-3,4-dihydro-2H-chromen-4-yl)amino]-3-(hydroxymethyl)-N,N,2-trimethylimidazo [1,2a]pyridine-6-carboxamide]

test system: not given; assay: not given; conditions: not given

SMILES | melting point
Cc1nc2c(N[C@H]3CCOc4cc(F)cc(F)c43)cc(C(=O)N(C)C)cn2c1CO (single isomer, unassigned) [Example 3-3] | 186 °C
